Where “and” joins values, the source holds several entries; their conditions need not be identical. Identical values can stand only once. Like-named read-outs stand apart in the source and are kept apart here.
Legend:
[1] = CSF concentrations of 3-SPA at Week 78 in North American Phase 3 tramiprosate trial (LC-MS/MS); format: in vivo, human; details: 150 mg BID tramiprosate; for concentration at 78 week: human, CSF, oral, 150 mg BID
Experimental: The samples were withdrawn from the freezer and shipped on dry ice to Nextcea Inc. (Woburn, MA) and stored in a freezer set to maintain−80° C. after receipt. The CSF collection and storage were carried out after subjects signed an informed consent in accordance with the ethical guidelines in the Czech Republic and good clinical practice, and according to the widely recognized consensus protocol for the standardization of CSF collection and biobanking (Viola et al., Amyloid β oligomers in Alzheimer's disease pathogenesis, treatment, and diagnosis. Acta Neuropathol 2015; 129:183-206; and Vanderstichele et al. Standardization of preanalytical aspects of cerebrospinal fluid biomarker testing for Alzheimer's disease diagnosis: A consensus paper from the Alzheimer's Biomarkers Standardization Initiative. Alzheimers Dement 2012; 8(1):65-73). Commercial ELISA kits (Innogenetics NV, Ghent, Belgium) were used for dementia biomarker analyses (Aβ1-42, tau protein, and phospho-tau), and cut off values derived from a validation study were used. CSF concentrations of 3-SPA were also quantified in 12 patients receiving the 150 mg BID dose of tramiprosate at Week 78 of the Phase 3 North American AD trial.
The 3-SPA reference material and human CSF samples were mixed with N-ethyl-N′-(3-dimethylaminopropyl) carbodiimide (EDC) and 2,2,2-trifluro ethylamine (TFEA). The samples were vortexed and reacted at room temperature for 30 minutes. The reactions were centrifuged at 4500 rpm for 5 minutes. The supernatant was transferred to a new plate for analysis. 3-SPA was identified and characterized using LC-MS and LC-MS/MS. Injections were made onto a Thermo Scientific AQUASIL 5 μm, 50×2.1 mm column using a Shimadzu autosampler and UPLC pump. Mobile phase A was 0.1% trifluoroacetic acid in water (v/v). Mobile phase B was 0.1% formic acid in 90/10 acetonitrile/water (v/v). The flow rate was 0.35 mL/min. The total running time per sample was 4 min. An API 6500 triple quadrupole mass spectrometer was used for detection. Data were acquired in negative LC-MS and LC-MS/MS modes. Representative chromatograms of 3-SPA in crude native material and human CSF derivatized with EDC and TFEA are shown in FIG. 7, FIG. 8 Panel A, and FIG. 8 Panel B. LC-MS and LC-MS/MS data were acquired using Analyst software (AB Sciex, Foster City, CA). LOQ for the LC-MS/MS method was 0.1 ng/ml with a dynamic range of 0.1 to 1000 ng/ml (r=0.99688 and % CV 5.8%±2.0; data on file). 3-SPA was identified in human CSF by matching the chromatographic retention time and by co-elution of the LC-MS/MS transition ions to the authentic 3-SPA reference standard (synthesized by Paraza Pharma, Montreal, Canada).
The levels of 3-SPA of in patients with a variety of cognition impairing diseases, including AD, ranged from 4.15 to 27.7 nM (0.64-4.27 ng/ml) (Table 1). When related to the CSF concentrations of Aβ42 monomers in AD patients (0.04 nM to 0.1 nM) (Bakan et al., ProDy: protein dynamics inferred from theory and experiments. Bioinformatics 2011; 27:1575-7; Shaw et al. Cerebrospinal fluid biomarker signature in Alzheimer's disease neuroimaging initiative subjects. Ann Neurol 2009; 65:403-13; Pannee et al. Reference measurement procedure for CSF Abeta1-42 and the CSF Abeta1-42/Abeta1-40 ratio—a crossvalidation study against Amyloid PET. J. Neurochem 2016; and Lambert et al. Diffusible, nonfibrillar ligands derived from A 1-42 are potent central nervous system neurotoxins. PNAS. 1998; 95:6448-53), there is an approximately 40-700 fold excess of 3-SPA over soluble Aβ42 monomers, which falls within the range where partial Aβ anti-oligomer aggregation activity may occur in some patients (Table 3). Furthermore, retrospective analyses of the CSF of a subset of patients from the tramiprosate Phase 3 trial were also evaluated for presence of 3-SPA, the primary metabolite of tramiprosate. […]

[2] = tested on: CYP; assay: Metabolism and CYP interactions of 3-SPA
Description: ALZ-801 is a valine conjugate of tramiprosate that has been optimized for improved pharmacokinetic properties and gastrointestinal tolerability. Chronic toxicology studies required for the advancement of ALZ-801 to Phase 3 have been completed, including the nonclinical safety characterization of ALZ-801, and the safety bridge to the extensive nonclinical toxicology and safety data for tramiprosate. […] See Hey et al., Clinical Pharmacokinetics and Safety of ALZ-801, a Novel Prodrug of Tramiprosate in Development for the Treatment of Alzheimer's Disease. Clin Pharmacokinetics 2018; 315-333 and Kocis et al., Elucidating the Abeta42 Anti-Aggregation Mechanism of Action of Tramiprosate in Alzheimer's Disease: Integrating Molecular Analytical Methods. Pharmacokinetic and Clinical Data. CNS Drugs 2017; 31:495-509. […] Both ALZ-801 and tramiprosate have consistent elimination half-life in plasma across species following repeated oral doses of ALZ-801, indicating no potential for accumulation after chronic dosing. Following conversion of ALZ-801 to tramiprosate, tramiprosate is consistently metabolized in vivo into a single major metabolite, 3-sulfopropanoic acid (3-SPA), in humans, mice, rats, dogs and minipigs.

In the case of `O=C(O)CCS(=O)(=O)O` [3-SPA, 3-sulfopropanoic acid], the “CSF concentration of 3-SPA, Median” value ([1]; Week 78) is reported as 19.3 ng/ml and 127.5 nM, the “CSF concentration of 3-SPA, Minimum-maximum” value ([1]; Week 78) is reported as 17.3-35.7 ng/ml and 114.3-235.8 nM and the “increase of mean CSF 3-SPA over levels observed in drug naïve patients” value ([1]; Week 78) is reported as 12.6 fold. For the same compound, the “CSF concentration of 3-SPA, Mean ± SD” value ([1]; Week 78, n=6) was 22.3 ± 7.9 ng/ml and 147 ± 51.3 nM, the concentration at 78 week ([1]; Week 78, n=6, read-out: CSF concentration of 3-SPA, Mean ± SD) was 147 nM and the concentration at 78 week ([1]; Week 78, read-out: CSF concentration of 3-SPA, Minimum-maximum) was 114 to 236 nM. For the same compound, the “Further metabolism or CYP interactions (in words)” value [2] was “No further metabolism or CYP interactions have been observed”.

Reference: US12083082B2, “Methods for treating neurodegenerative disorders” (Alzheon, Inc., priority 2018, dated 2024)
